Data from ChEMBL document CHEMBL5120875, “Discovery of diarylheptanoids that activate α7 nAchR-JAK2-STAT3 signaling in macrophages with anti-inflammatory activity in vitro and in vivo” (Bioorg Med Chem, 2022).
Active and inactive are the calls of the source. The rule behind the calls is not given here.

Legend:
RAW264.7 [1] = assay: Inhibition of LPS-induced NO production in mouse RAW264.7 cells at 5 uM preincubated with compound for 2 hrs followed by LPS stimulation for 24 hrs by Griess reagent based assay relative to control; format: functional; settings: time 26 hrs
RAW264.7 [2] = assay: Inhibition of LPS-induced NO production in mouse RAW264.7 cells preincubated with compound for 2 hrs followed by LPS stimulation for 24 hrs by Griess reagent based assay; format: functional, cell-based
RAW264.7 [3] = assay: Cytotoxicity against mouse RAW264.7 cells assessed as effect on cell viability at 5 uM incubated for 24 hrs by alamar blue reagent based fluorescence assay; format: toxicity; settings: raw264.7, 24 h
RAW264.7 [4] = assay: Antiinflammatory activity in mouse RAW264.7 cells assessed as inhibition of LPS-induced IL-6 production preincubated for 2 hrs followed by LPS-stimulation for 24 hrs by ELISA; format: functional, cell-based; settings: dose 0.2-5 µM, time 26.0 hrs, DDE = dose-dependent effect
RAW264.7 [5] = assay: Antiinflammatory activity in mouse RAW264.7 cells assessed as inhibition of LPS-induced IL-1beta production preincubated for 2 hrs followed by LPS-stimulation for 24 hrs by ELISA; format: functional, cell-based; settings: dose 0.2-5 µM, time 26.0 hrs, DDE = dose-dependent effect
RAW264.7 [6] = assay: Antiinflammatory activity in mouse RAW264.7 cells assessed as decrease in LPS-induced IL-6 mRNA expression at 0.2 to 5 uM preincubated for 2 hrs followed by LPS-stimulation for 24 hrs by qRT-PCR analysis; format: functional, cell-based; settings: dose 0.2-5 µM, time 26.0 hrs
RAW264.7 [7] = assay: Antiinflammatory activity in mouse RAW264.7 cells assessed as decrease in LPS-induced IL-1beta mRNA expression at 0.2 to 5 uM preincubated for 2 hrs followed by LPS-stimulation for 24 hrs by qRT-PCR analysis; format: functional, cell-based; settings: dose 0.2-5 µM, time 26.0 hrs
RAW264.7 [8] = assay: Antiinflammatory activity in mouse RAW264.7 cells assessed as inhibition of LPS-induced iNOS mRNA expression preincubated for 2 hrs followed by LPS stimulation for 24 hrs by qRT-PCR analysis; format: functional, cell-based; settings: dose 0.2-5 µM, time 26.0 hrs, DDE = dose-dependent effect
Peritoneal macrophage = assay: Antiinflammatory activity in mouse peritoneal macrophages assessed as reduction in LPS-induced NO production at 0.2 to 5 uM preincubated for 2 hrs followed by LPS-stimulation for 22 hrs by Griess reagent based assay; format: functional, cell-based; settings: dose 0.2-5 µM, time 24.0 hrs
THP-1 [9] = assay: Antiinflammatory activity in human THP-1 monocytes assessed as reduction in LPS/Interferon-gamma NO production at 0.2 to 5 uM pretreated with PMA for 24 hrs followed by compound addition 2 hrs and stimulated with LPS/Interferon-gamma for 22 hrs by Griess reagent based assay; format: functional, cell-based; settings: dose 0.2-5 µM
RAW264.7 [10] = assay: Activation of NF-kappaB signalling pathway in mouse RAW264.7 cells assessed as suppression of LPS-induced IkappaBalpha phosphorylation pretreated with compound for 2 hrs followed by LPS-stimulation for 30 mins by Western blot analysis; format: cell-based; settings: filed as activator, dose 0.2-5 µM, time 2.5 hrs
RAW264.7 [11] = assay: Activation of NF-kappaB signalling pathway in mouse RAW264.7 cells assessed as suppression of LPS-induced IkappaBalpha degradation pretreated with compound for 2 hrs followed by LPS-stimulation for 30 mins by Western blot analysis; format: cell-based; settings: filed as activator, dose 0.2-5 µM, time 2.5 hrs, DDE = dose-dependent effect
RAW264.7 [12] = assay: Activation of NF-kappaB signalling pathway in mouse RAW264.7 cells assessed as decrease in LPS-induced AKT phosphorylation at 0.2 to 5 uM pretreated with compound for 2 hrs followed by LPS-stimulation for 30 mins by Western blot analysis; format: cell-based; settings: filed as activator, dose 0.2-5 µM, time 2.5 hrs
[13] = target: T1, Signal transducer and activator of transcription 1 (Mus musculus) (UniProt P42225); assay: Inhibition of LPS-induced STAT1 phosphorylation in mouse RAW264.7 cells pretreated with compound for 2 hrs followed by LPS-stimulation and measured after 30 mins by immunoblot analysis; format: cell-based; settings: dose 0.2-5 µM, time 2.5 hrs, DDE = dose-dependent effect
T1 sequence (whole entry): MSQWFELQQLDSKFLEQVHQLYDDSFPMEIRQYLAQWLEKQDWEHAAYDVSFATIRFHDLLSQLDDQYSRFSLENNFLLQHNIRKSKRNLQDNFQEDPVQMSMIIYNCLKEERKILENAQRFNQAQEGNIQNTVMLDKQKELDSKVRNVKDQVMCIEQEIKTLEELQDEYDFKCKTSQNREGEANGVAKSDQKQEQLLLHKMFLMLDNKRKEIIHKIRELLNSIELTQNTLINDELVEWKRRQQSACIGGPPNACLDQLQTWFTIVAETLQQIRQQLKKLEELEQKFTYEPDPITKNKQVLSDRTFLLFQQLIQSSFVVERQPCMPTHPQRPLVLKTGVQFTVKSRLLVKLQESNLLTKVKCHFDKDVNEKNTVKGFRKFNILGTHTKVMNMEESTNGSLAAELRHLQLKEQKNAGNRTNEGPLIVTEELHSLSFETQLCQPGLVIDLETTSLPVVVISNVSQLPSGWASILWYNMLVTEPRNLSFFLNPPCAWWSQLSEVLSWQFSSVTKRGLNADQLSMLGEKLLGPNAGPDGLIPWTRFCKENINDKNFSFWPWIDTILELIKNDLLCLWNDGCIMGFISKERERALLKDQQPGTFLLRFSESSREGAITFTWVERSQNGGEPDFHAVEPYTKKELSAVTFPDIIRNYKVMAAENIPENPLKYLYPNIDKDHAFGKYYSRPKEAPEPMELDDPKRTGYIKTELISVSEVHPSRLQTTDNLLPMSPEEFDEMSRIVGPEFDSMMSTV

RAW264.7 [14] = assay: Antiinflammatory activity in LPS-induced mouse RAW264.7 cells assessed as enhancement of JAK2 phosphorylation pretreated with compound for 2 hrs followed by LPS-stimulation and measured after 30 mins by Western blot analysis; format: functional, cell-based; settings: dose 0.2-5 µM, time 2.5 hrs, DDE = dose-dependent effect
RAW264.7 [15] = assay: Antiinflammatory activity in LPS-induced mouse RAW264.7 cells assessed as enhancement of STAT3 phosphorylation pretreated with compound for 2 hrs followed by LPS-stimulation and measured after 30 mins by Western blot analysis; format: functional, cell-based; settings: dose 0.2-5 µM, time 2.5 hrs, DDE = dose-dependent effect
THP-1 [16] = assay: Antiinflammatory activity in LPS/IFNgamma-stimulated human THP-1 monocytes assessed as inhibition of NO production pretreated with PMA for 24 hrs and incubated alpha-bungarotoxin for 1 hr followed by compound addition for 2 hrs and further stimulated with LPS/INF-gamma for 22 hrs by Griess reagent based assay; format: functional, cell-based
[17] = target: Neuronal acetylcholine receptor subunit alpha-7 (Mus musculus) (UniProt P49582); assay: Binding affinity to alpha7 nAChR in mouse RAW264.7 cells assessed as increase in thermal stability at 200 uM incubated for 30 min by CETSA; format: cell-based; settings: filed as agonist
Sequence of Neuronal acetylcholine receptor subunit alpha-7 (Mus musculus) (P49582 whole entry): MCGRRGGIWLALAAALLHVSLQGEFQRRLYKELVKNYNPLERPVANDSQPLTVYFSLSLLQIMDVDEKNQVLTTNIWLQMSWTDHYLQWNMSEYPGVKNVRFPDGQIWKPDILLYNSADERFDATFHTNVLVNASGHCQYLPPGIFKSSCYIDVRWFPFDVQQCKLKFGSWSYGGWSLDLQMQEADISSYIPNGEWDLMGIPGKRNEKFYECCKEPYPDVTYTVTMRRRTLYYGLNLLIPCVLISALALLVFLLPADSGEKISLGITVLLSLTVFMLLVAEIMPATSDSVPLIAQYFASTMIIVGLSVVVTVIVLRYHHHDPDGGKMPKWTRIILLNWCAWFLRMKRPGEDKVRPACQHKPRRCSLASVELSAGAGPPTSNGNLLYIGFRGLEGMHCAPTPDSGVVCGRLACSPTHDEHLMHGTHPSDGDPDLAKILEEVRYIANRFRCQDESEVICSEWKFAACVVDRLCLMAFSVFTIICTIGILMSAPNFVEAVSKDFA

RAW264.7 [18] = assay: Antiinflammatory activity in mouse RAW264.7 cells assessed as inhibition of LPS-induced iNOS protein expression preincubated for 2 hrs followed by LPS stimulation for 24 hrs by qRT-PCR analysis; format: functional, cell-based; settings: time 26.0 hrs, DDE = dose-dependent effect
RAW264.7 [19] = assay: (§1) Antiinflammatory activity in LPS-induced mouse RAW264.7 cells assessed as enhancement of JAK2 phosphorylation at 0.2 to 5 uM pretreated with alpha7 nAChR antagonist alpha-bungarotoxin for 1 hr followed by compound treatment for 2 hrs and further stimulated with LPS for 30 mins by Western blot analysis; format: functional, cell-based; settings: dose 0.2-5 µM, time 2.5 hrs
RAW264.7 [20] = assay: as §1, with “STAT3” for “JAK2”; format: functional, cell-based; settings: dose 0.2-5 µM, time 2.5 hrs
Mus musculus [21] = assay: (§2) Antiinflammatory activity in LPS-induced ICR sepsis mouse model assessed as attenuation of LPS-induced inflammatory cell infiltration at 5 mg/kg, ip pretreated with compound for 5 days followed by LPS stimulation and measured 2 hrs post last dose by hematoxylin and eosin staining based microscopic analysis; format: functional, organism-based; settings: time 5.0 day
Mus musculus [22] = assay: Antiinflammatory activity in LPS-induced ICR sepsis mouse model assessed as attenuation of LPS-induced lung damage at 5 mg/kg, ip pretreated with compound for 5 days followed by LPS stimulation and measured 2 hrs post last dose by hematoxylin and eosin staining based microscopic analysis; format: functional, organism-based; settings: time 5.0 day
RAW264.7 [23] = assay: as §1, with “LPS-stimulated” for “LPS-induced”, “inhibition” for “enhancement”, “IkappaBalpha degradation” for “JAK2 phosphorylation”, “antagonist,” for “antagonist”; format: functional, cell-based; settings: dose 0.2-5 µM, time 2.5 hrs
RAW264.7 [24] = assay: Antiinflammatory activity in LPS-stimulated mouse RAW264.7 cells assessed as inhibition of NO production at 0.2 to 5 uM pretreated with alpha7 nAChR antagonist alpha-bungarotoxin for 1 hr followed by compound treatment for 2 hrs and further stimulated with LPS for […] reagent based assay; format: functional, cell-based; settings: dose 0.2-5 µM
Mus musculus [25] = assay: Antiinflammatory activity in LPS-induced ICR sepsis mouse model assessed as suppression of LPS-induced serum interleukin-1beta level at 5 to 20 mg/kg, ip pretreated with compound for 5 days followed by LPS stimulation and measured 2 hrs post last dose by ELISA analysis; format: functional, organism-based; settings: dose 5-20 mg/kg, time 5.0 day
Mus musculus [26] = assay: Antiinflammatory activity in LPS-induced ICR sepsis mouse model assessed as high survival rate at 5 to 20 mg/kg, ip pretreated with compound for 5 days followed by LPS stimulation and measured 2 hrs post last dose; format: functional, organism-based; settings: dose 5-20 mg/kg, time 5.0 day
Mus musculus [27] = assay: Antiinflammatory activity in LPS-induced ICR sepsis mouse model assessed as suppression of LPS-induced serum interleukin-6 level at 5 to 20 mg/kg, ip pretreated with compound for 5 days followed by LPS stimulation and measured 2 hrs post last dose by ELISA analysis; format: functional, organism-based; settings: dose 5-20 mg/kg, time 5.0 day
Mus musculus [28] = assay: as §2, with “at 5 to 20 mg/kg, ip” for “at 5 mg/kg, ip”; format: functional, organism-based; settings: dose 5-20 mg/kg, time 5.0 day
Mus musculus [29] = assay: Antiinflammatory activity in LPS-induced ICR sepsis mouse model assessed as attenuation of LPS-induced lung damage at 5 to 20 mg/kg, ip pretreated with compound for 5 days followed by LPS stimulation and measured 2 hrs post last dose by hematoxylin and eosin staining based microscopic analysis; format: functional, organism-based; settings: dose 5-20 mg/kg, time 5.0 day
RAW264.7 [30] = assay: Antiinflammatory activity in mouse RAW264.7 cells assessed as inhibition of LPS-induced IL-6 production at 10 uM preincubated for 2 hrs followed by LPS-stimulation for 24 hrs by ELISA; format: functional, cell-based; settings: time 26.0 hrs
RAW264.7 [31] = assay: Antiinflammatory activity in mouse RAW264.7 cells assessed as inhibition of LPS-induced IL-1beta production at 10 uM preincubated for 2 hrs followed by LPS-stimulation for 24 hrs by ELISA; format: functional, cell-based; settings: time 26.0 hrs

COc1ccc(/C=C/C=C/C(=O)/C=C/c2ccc(OC)c(O)c2)c(OC)c1
inhibition at 5 µM (RAW264.7 [1]): 106%
IC50 (RAW264.7 [2]): 550 nM
Activity (RAW264.7 [3]): Non-Toxic
Activity (RAW264.7 [4]): Dde
Activity (RAW264.7 [5]): Dde
Activity (RAW264.7 [6]): Active
Activity (RAW264.7 [7]): Active
Activity (RAW264.7 [8]): Dde
Activity (Peritoneal macrophage): Active
Activity (THP-1 [9]): Active
Activity (RAW264.7 [10]; DDE = dose-dependent effect): Dde
Activity (RAW264.7 [11]): Dde
Activity (RAW264.7 [12]): Active
inhibition [13]: Dde
Activity (RAW264.7 [14]): Dde
Activity (RAW264.7 [15]): Dde
Activity (THP-1 [16]): Active
Activity [17]: Active
Activity (RAW264.7 [18]): Dde
Activity (RAW264.7 [19]): Active
Activity (RAW264.7 [20]): Active

C[C@@H]1C[C@H]2[C@@H]3CCC4=CC(=O)C=C[C@]4(C)[C@@]3(F)[C@@H](O)C[C@]2(C)[C@@]1(O)C(=O)CO
Activity (Mus musculus [21]): Active
Activity (Mus musculus [22]): Active

CC(=O)Oc1ccc(CC[C@H](CCCCc2ccccc2)OC(C)=O)cc1OC(C)=O
inhibition at 5 µM (RAW264.7 [1]): 93.2%
IC50 (RAW264.7 [2]): 320 nM
Activity (RAW264.7 [3]): Non-Toxic
Activity (RAW264.7 [4]): Dde
Activity (RAW264.7 [5]): Dde
Activity (RAW264.7 [6]): Active
Activity (RAW264.7 [7]): Active
Activity (RAW264.7 [8]): Dde
Activity (RAW264.7 [10]; DDE = dose-dependent effect): Dde
Activity (RAW264.7 [11]): Dde
Activity (RAW264.7 [12]): Active
inhibition [13]: Dde
Activity (RAW264.7 [14]): Dde
Activity (RAW264.7 [15]): Dde
Activity (RAW264.7 [23]): Active
Activity (RAW264.7 [24]): Active
Activity (Mus musculus [25]): Active
Activity (Mus musculus [26]): Active
Activity (Mus musculus [27]): Active
Activity (Mus musculus [28]): Active
Activity (Mus musculus [29]): Active
Activity (RAW264.7 [18]): Dde
Activity (RAW264.7 [19]): Active
Activity (RAW264.7 [20]): Active

Cc1ccc(S(=O)(=O)/C=C/C#N)cc1
Activity (RAW264.7 [10]): Active
Activity (RAW264.7 [30]): Active
Activity (RAW264.7 [31]): Active
